Where “and” joins values, the source holds several entries; their conditions need not be identical. Identical values can stand only once.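 Exposure lasted 48 hours, with cells grown in 96-well plates and compounds tested at five concentrations. GI50: concentration for 50% inhibition of growth. TGI marks complete inhibition of growth.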 Numbered stars: 1 amine (or outer) side, 2 acyl side, 3 side chain; on linkers, the order of the positions; unused ones are H or OH. Bridge positions count the residues as written; N and C are the ends. Square brackets hold non-standard residues; d marks the D form. Peptide text beside a SMILES is read from it. I, II: the chains in the order shown. Actinocin(1to9) = Cc1c2oc3c(C)ccc(C(=O)[*:2])c3nc-2c(C(=O)[*:1])c(N)c1=O; NMeY = CN[CH](Cc1ccc(O)cc1)C(=O)O; Sar = CNCC(=O)O

Some test systems named below: SF-295 CNS; CAKI-1 renal; UACC-257 melanoma; SNB-75 CNS; U251 CNS; UACC-62 melanoma; HCC-2998 colon; EKVX NSCLC; SK-MEL-28 melanoma; SK-MEL-2 melanoma.
What all share (test): growth of human tumour cells (NCI), 48 h

`CC(C)(C)OC(=O)N[C@@H](Cc1ccccc1)C(=O)N(Cc1ccccc1)C1(C(=O)NCc2ccccc2)CCN(Cc2ccccc2)CC1`: the GI50 in the assay on SF-295 CNS is 2.9 µM; in the assay on CAKI-1 renal it was 2.32 µM; in the assay with UACC-257 melanoma it was 2.54 µM; in the assay on SNB-75 CNS it was 2.97 µM; in the assay on U251 CNS it was 3.19 µM; with UACC-62 melanoma, 2.54 µM. For the same compound, the GI50 in the assay with HCC-2998 colon is 4.54 µM. Moreover, the TGI was more than 100 µM with SF-295 CNS; more than 100 µM in the assay with CAKI-1 renal; more than 100 µM in the assay on UACC-257 melanoma; more than 100 µM in the assay with SNB-75 CNS; more than 100 µM in the assay with U251 CNS; 7.88 µM in the assay with UACC-62 melanoma. Further, in the assay with HCC-2998 colon, the TGI is more than 100 µM.

As to `O=C1N=C(Nc2nc(-c3csc(NC4=NC(=O)/C(=C\c5ccccc5)S4)n3)cs2)S/C1=C/c1ccccc1`, the GI50 with EKVX NSCLC is 12.7 µM; with SK-MEL-28 melanoma, more than 50 µM; with SF-295 CNS, 16.6 µM; in the assay with CAKI-1 renal it was 29.2 µM; in the assay with UACC-257 melanoma it was 12.2 µM; in the assay with U251 CNS it was 6.34 µM. Further, the values for the GI50 in the assay with UACC-62 melanoma, with SK-MEL-2 melanoma and with HCC-2998 colon were 6.4 µM, more than 50 µM and 8.2 µM, respectively. Besides, the TGI was more than 50 µM in the assay with EKVX NSCLC; more than 50 µM in the assay on SK-MEL-28 melanoma; more than 50 µM in the assay on SF-295 CNS; more than 50 µM in the assay on CAKI-1 renal; 28.1 µM with UACC-257 melanoma; more than 50 µM in the assay with U251 CNS. Moreover, the results for the TGI in the assay with UACC-62 melanoma, in the assay with SK-MEL-2 melanoma and with HCC-2998 colon were 18.5 µM, more than 50 µM and 45.5 µM, respectively.

Take `COc1ccc(CC2C(=O)OC(C)C(NC(=O)c3c4nc5c(C(=O)NC6C(=O)NC(C(C)C)C(=O)N7CCCC7C(=O)N(C)CC(=O)N(C)C(Cc7ccc(OC)cc7)C(=O)OC6C)ccc(C)c5oc-4c(C)c(=O)c3N)C(=O)NC(C(C)C)C(=O)N3CCCC3C(=O)N(C)CC(=O)N2C)cc1` (centres undefined) (I: TVP[Sar][NMeY](Me) / II: TVP[Sar][NMeY](Me); ester I:1-I:C, II:1-II:C; linker I:N-II:N via Actinocin(1to9); configuration not given here): the GI50 in the assay on EKVX NSCLC is < 0.01 µM and 0.0696 µM; in the assay with CAKI-1 renal, < 0.01 µM and 0.0363 µM; with U251 CNS, 0.00189 µM; in the assay on SK-MEL-2 melanoma it was < 0.01 µM and 0.0228 µM. Moreover, the TGI in the assay on EKVX NSCLC is 0.0734 µM and > 0.617 µM; with SF-295 CNS it was 0.28 µM; in the assay on CAKI-1 renal it was 0.734 µM; in the assay on SNB-75 CNS it was 0.158 µM; with U251 CNS, more than 1 µM.

With `CC(=O)[O-].N.N.N.N.[Co+3].[O-][Cl+3]([O-])([O-])[O-].[OH3+]`, the GI50 is more than 100 µM in the assay on EKVX NSCLC; more than 100 µM in the assay on SK-MEL-28 melanoma; more than 100 µM in the assay with SF-295 CNS; more than 100 µM in the assay with UACC-257 melanoma; 55.1 µM with SNB-75 CNS; more than 100 µM with U251 CNS. Besides, the GI50 with UACC-62 melanoma, in the assay with SK-MEL-2 melanoma and in the assay on HCC-2998 colon was more than 100 µM throughout. Further, the TGI in the assay with EKVX NSCLC, with SK-MEL-28 melanoma, in the assay on SF-295 CNS, in the assay on UACC-257 melanoma, with SNB-75 CNS and with U251 CNS was more than 100 µM each time. Further, the TGI in the assay with UACC-62 melanoma, in the assay with SK-MEL-2 melanoma and in the assay with HCC-2998 colon was more than 100 µM in each case.

On to `C=C1C(=O)O[C@H]2C[C@@H]1C(=O)CC(C)CCCC(C)=CCC[C@@]2(C)O` (some centres undefined), for which the TGI with EKVX NSCLC, in the assay on SK-MEL-28 melanoma, in the assay with SF-295 CNS, in the assay with UACC-257 melanoma, in the assay on U251 CNS and in the assay with UACC-62 melanoma was more than 25 µM in each case. Moreover, the TGI in the assay with SK-MEL-2 melanoma and with HCC-2998 colon was more than 25 µM each time.

For `C[C@]12C[C@H](O)[C@H]3[C@@H](CCC4=CC(=O)CC[C@@]43C)[C@@H]1CC[C@@H]2c1csc(-c2ccccc2)n1`, the TGI with EKVX NSCLC is more than 100 µM; in the assay on SK-MEL-28 melanoma, more than 100 µM; in the assay with SF-295 CNS, more than 100 µM; in the assay on CAKI-1 renal, more than 100 µM; in the assay on UACC-257 melanoma, more than 100 µM; in the assay on SNB-75 CNS, more than 82.7 µM. Besides, the TGI was more than 71.4 µM in the assay with U251 CNS, more than 100 µM with UACC-62 melanoma and more than 90.5 µM with SK-MEL-2 melanoma.

On to `COc1cc2c3c(n(CCCNCCCN)c(=O)c2cc1OC)-c1cc2c(cc1C3=O)OCO2`, for which the GI50 in the assay on EKVX NSCLC is 5.27 µM; in the assay on SK-MEL-28 melanoma, 4.37 µM; in the assay with SF-295 CNS, 3.69 µM; in the assay with CAKI-1 renal, 8.22 µM; in the assay with UACC-257 melanoma, 7.31 µM; with SNB-75 CNS it was 4.48 µM. Further, the GI50 with U251 CNS was 1.25 µM; with UACC-62 melanoma it was 3.41 µM; in the assay on SK-MEL-2 melanoma, 2.35 µM. The TGI with EKVX NSCLC stood at 19.4 µM; with SK-MEL-28 melanoma, 17.8 µM; with SF-295 CNS, 16.7 µM; in the assay on CAKI-1 renal it was 37.3 µM; with UACC-257 melanoma, 23 µM; in the assay with SNB-75 CNS it was 36.7 µM. The TGI in the assay with U251 CNS came out at 11.4 µM; in the assay on UACC-62 melanoma it was 15.5 µM; in the assay on SK-MEL-2 melanoma, 7.33 µM.

With `COc1cc(/C=C2\CCCC3=C2N=C2SC(C)=NN2C3c2cc(OC)c(OC)c(OC)c2)cc(OC)c1OC` (centres undefined), the GI50 in the assay on UACC-257 melanoma and in the assay with SK-MEL-2 melanoma was more than 100 µM throughout. The TGI in the assay on UACC-257 melanoma and with SK-MEL-2 melanoma was more than 100 µM in each case.

On to `COC(=O)N/N=C(\C)CC(=O)Nc1ccc(Cl)cc1`, for which the TGI in the assay on EKVX NSCLC, in the assay on SK-MEL-28 melanoma, in the assay on SF-295 CNS, in the assay with UACC-257 melanoma, in the assay with SNB-75 CNS and with U251 CNS was more than 100 µM each time. Also, the TGI in the assay on UACC-62 melanoma, in the assay on SK-MEL-2 melanoma and in the assay with HCC-2998 colon was more than 100 µM throughout.

On to `O=C1NC2C(O)CCCCC2C12CCCCC2` (centres undefined), for which the TGI in the assay on EKVX NSCLC, in the assay on SK-MEL-28 melanoma, in the assay on SF-295 CNS, with CAKI-1 renal, in the assay with UACC-257 melanoma and with SNB-75 CNS was more than 100 µM in each case. For the same compound, the TGI in the assay on U251 CNS, in the assay on UACC-62 melanoma and with SK-MEL-2 melanoma was more than 100 µM throughout.

With `CC(SCc1ccccc1)C(=O)O` (centres undefined), the TGI in the assay with EKVX NSCLC, in the assay with SK-MEL-28 melanoma, in the assay on SF-295 CNS, in the assay with CAKI-1 renal, with UACC-257 melanoma and in the assay with SNB-75 CNS was more than 100 µM throughout. Further, the TGI with U251 CNS, in the assay on UACC-62 melanoma and in the assay with SK-MEL-2 melanoma was more than 100 µM throughout.

For the compound `O=c1/c(=N\Nc2ccccc2)c2cccc3ccc4cccc1c4c32`, the TGI in the assay on EKVX NSCLC, with SK-MEL-28 melanoma, in the assay on SF-295 CNS, in the assay on CAKI-1 renal, with UACC-257 melanoma and in the assay with SNB-75 CNS was more than 100 µM each time. In addition, the TGI with U251 CNS, with UACC-62 melanoma and in the assay with SK-MEL-2 melanoma was more than 100 µM throughout.

For the origin of these results see PubChem BioAssay (NCI).
